Measured values from US8293914B2, “4-OXO,1-4-dihydroquinoline M1 receptor positive allosteric modulators” (Merck Sharp & Dohme Corp., priority 2008, dated 2012).

target: T1, acetylcholine muscarinic M1 receptor (CHOnfat/hM1 cells) (Homo sapiens, UniProt P11229); assay: muscarinic M1 FLIPR calcium assay for positive allosteric modulator activity (acetylcholine EC20); format: cell-based; settings: FLIPR intracellular Ca2+, 4 min preincubation, then EC20 acetylcholine (3 nM final), read-out: IP Value (inflection point)
T1 construct: expressed in transfected cells; host or cells: CHOnfat (CHO) cells expressing hM1
T1 sequence (P11229 1-460): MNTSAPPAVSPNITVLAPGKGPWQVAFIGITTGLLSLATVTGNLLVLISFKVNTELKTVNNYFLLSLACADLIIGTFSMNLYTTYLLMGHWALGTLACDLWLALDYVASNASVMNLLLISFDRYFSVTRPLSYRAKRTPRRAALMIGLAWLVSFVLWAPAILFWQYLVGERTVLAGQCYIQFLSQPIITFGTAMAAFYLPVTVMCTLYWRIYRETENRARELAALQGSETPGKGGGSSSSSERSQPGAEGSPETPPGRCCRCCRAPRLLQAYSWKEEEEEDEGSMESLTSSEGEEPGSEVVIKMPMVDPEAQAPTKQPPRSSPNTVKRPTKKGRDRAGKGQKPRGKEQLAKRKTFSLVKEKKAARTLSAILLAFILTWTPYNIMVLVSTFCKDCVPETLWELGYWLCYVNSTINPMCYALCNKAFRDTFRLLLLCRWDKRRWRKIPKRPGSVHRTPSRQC
Description: The assay studies the effect of one or several concentrations of test compounds on basal or acetylcholine-stimulated Ca^2+ levels using FLIPR.
Compounds are prepared and subjected to a preincubation period of 4 min. Thereafter, a single EC20 concentration of acetylcholine is added to each well (3 nM final). The intracellular Ca^2+ level of each sample is measured and compared to an acetylcholine control to determine any modulatory activity.
Cells: CHOnfat/hM1, hM2, hM3 or hM4 cells are plated 24 hr before the assay at a density of 18,000 cells/well (100 μL) in a 384 well plate. CHOnfat/hM1 and CHOnfat/hM3 Growth Medium: 90% DMEM (Hi Glucose); 10% HI FBS; 2 mM L-glutamine; 0.1 mM NEAA; Pen-Strep; and 1 mg/ml Geneticin, are added. For M2Gqi5CHOnfat and M4Gqi5CHOnfat cells, an additional 600 μg/ml hygromycin is added.
Buffers. […] Dye Loading Buffer: Assay Buffer plus 1% Fetal Bovine Serum and Fluo-4AM/Pluronic Acid Mixture. […] 20% Pluronic Acid Solution stock, with a concentration of 0.04% in Buffer, 0.02% in Assay.
65 μL of 2 mM Fluo-4AM are mixed with 130 μL of 20% Pluronic Acid. The resulting solution and 650 μL FBS is added to the assay buffer for a total volume of 65 mL. Positive Controls: 4-Br-A23187: 10 mM in DMSO; final concentration 10 μM. Acetylcholine: 10 mM in water, working stock at both 20 μM and 30 μM in assay buffer, final concentration of 10 μM. This is used to check the maximum stimulation of the CHOK1/hM1 cells. 20 μM (2×) acetylcholine is added in the preincubation part of the assay, and the 30 μM (3×) stock is added in the second part. (EC20)Acetylcholine: 10 mM in water, working stock of 9 nM (3×), and final concentration in assay is 3 nM. This is used after the preincubation with test compounds. Addition of the EC20 Acetylcholine to each well with a test compound will ascertain any modulator activity. 24 wells contain 3 nM Acetylcholine alone as a control.
Four 96-well plates are combined into a 384-well plate using Mosquito Nanolitre Pipetting System by transferring 1 μl of serial diluted compounds to each well, and 1 mM acetylcholine (100× stock concentration) were added as a control. Using Temo, 49 μl assay buffer is added to each well of the 384-well plate right before assay.
In a 96-well Whatman 2 ml Uniplate, 9 nM Acetylcholine (3×) is pipetted into wells corresponding to the screening compounds, and into control wells. The 30 μM acetylcholine control (3×) is added into control wells, and the 3× agonist plate is transferred into a 384-well plate.
Cells are washed three times with 100 μL, of buffer, leaving 30 μL of buffer in each well. Using Multimek, 30 μL of Dye Loading Buffer is added into each well and incubated at 37° C., 5% CO2 for up to one hr.
After 60 min, the cells are washed three times with 100 μL of buffer, leaving 30 μL of buffer in each well. The cell plate, screening plate, and agonist addition plates are placed on the platform in the FLIPR and the door is closed. A signal test to check background fluorescence and basal fluorescence signal is performed. Laser intensity is adjusted if necessary.
4 min of preincubation with the test compounds is provided to determine any agonist activity on the M1 receptor by comparison to the 1 mM acetylcholine control. After preincubation, the EC20 value of acetylcholine (3 nM final) is added to determine any modulator activity.
The inflection point is calculated from the FLIPR values, and is a measure of activity.

| SMILES | EC50 [nM] |
| --- | --- |
| CS(=O)(=O)Nc1cccc(-c2ccc(Cn3cc(C(=O)O)c(=O)c4cccc(F)c43)nc2)c1 [Example 101] | 99 |
| O=C(O)c1cn(Cc2ccc(-c3cnn(CC(F)(F)F)c3)cn2)c2c(F)ccc(F)c2c1=O [Example 156] | 114 |
| O=C(O)c1cn(Cc2cccc(-n3cccn3)n2)c2c(F)ccc(F)c2c1=O [Example 160] | 2240 |
| O=C(O)c1cn(Cc2c(F)cncc2F)c2c(F)cccc2c1=O [Example 283] | 2890 |
| CCn1cc(-c2ccc(Cn3cc(C(=O)O)c(=O)c4c(F)ccc(F)c43)nc2)cn1 [Example 2] | 65 |
| O=C(O)c1cn(Cc2cnc(-c3ccncc3)cn2)c2c(F)cccc2c1=O [Example 315] | 7190 |
| Nc1cccc(-c2ccc(Cn3cc(C(=O)O)c(=O)c4cccc(F)c43)nc2)c1 [Example 55] | 24 |
| O=C(O)c1cn(Cc2ccc(-c3ccc(N4CCOCC4)nc3)cn2)c2cccc(F)c2c1=O [Example 27] | 100 |
| C[S+]([O-])c1ccc(Cn2cc(C(=O)O)c(=O)c3cccc(F)c32)nn1 (stereo not shown) [Example 352] | 24800 |
| O=C(O)c1cn(Cc2ccc(-c3cccc(O)c3)nn2)c2c(F)cccc2c1=O [Example 319] | 382 |
| CS(=O)(=O)c1ccc(Cn2cc(C(=O)O)c(=O)c3cccc(F)c32)nn1 [Example 373, 8-Fluoro-1-{[6-(methylsulfonyl)pyridazin-3-yl]methyl}-4-oxo-1,4-dihydroquinoline-3-carboxylic acid] | ~80000 |
| O=C(O)c1cn(Cc2ccc(-c3ccc(F)nc3)cn2)c2cccc(F)c2c1=O [Example 7] | 495 |
| O=C(O)c1cn(Cc2ccc(N3CCC3)nn2)c2c(F)cccc2c1=O [Example 334] | 5250 |
| O=C(O)c1cn(Cc2ccc(N3CCCCC3)nn2)c2c(F)cccc2c1=O [Example 372, 8-Fluoro-4-oxo-1-[(6-piperidin-1-ylpyridazin-3-yl)methyl]-1,4-dihydroquinoline-3-carboxylic acid] | 14300 |
| O=C(O)c1cn(Cc2ccc(-c3ccc(F)nc3)cn2)c2c(F)cccc2c1=O [Example 1, 5-{6-[(3-Carboxy-8-fluoro-4-oxoquinolin-1(4H)-yl)methyl]pyridine-3-yl}-2-fluoropyridinium] | 202 |
| O=C(O)c1cn(Cc2ccc(-c3ccccc3F)nn2)c2c(F)cccc2c1=O [Example 329] | 8660 |
| O=C(O)c1cn(Cc2ncc(-c3ccccc3O)cn2)c2c(F)cccc2c1=O [Example 293] | 2320 |
| O=C(O)c1cn(Cc2ccc(-c3ccc(F)cc3F)cn2)c2c(F)cccc2c1=O [Example 108] | 745 |
| COc1ccc(-c2ccc(Cn3cc(C(=O)O)c(=O)c4c(F)ccc(F)c43)nc2)cn1 [Example 134] | 302 |
| O=C(O)c1cn(Cc2ccc(-n3cccn3)cn2)c2c(F)cccc2c1=O [Example 68] | 1900 |
| Cn1ccc2cc(-c3ccc(Cn4cc(C(=O)O)c(=O)c5cccc(F)c54)cn3)ccc21 [Example 234] | 37 |
| Nc1ccc(-c2ccc(Cn3cc(C(=O)O)c(=O)c4c(F)cccc43)nc2)cn1 [Example 10] | 103 |
